Reference: patent publication US20230146675A1, “PYRIMIDO[5,4-d]PYRIMIDINE DERIVATIVES AS ENT INHIBITORS FOR THE TREATMENT OF CANCERS, AND COMBINATION THEREOF WITH ADENOSINE RECEPTOR ANTAGONISTS” (ITEOS BELGIUM SA, priority 2020, published 2023)
pIC50: −log10 of the molar value.

Legend:
Assay type in all cases: biochemical
[1] = target: T1, Human phosphodiesterase-1B (Homo sapiens, UniProt Q01064); experiment: PDE1B (h) assay
T1 construct: host or cells: Sf9 cells
Experimental: Method. • Human phosphodiesterase-1B quantified by measuring the formation of 5′GMP from cGMP using a human recombinant enzyme expressed in Sf9 cells
The test compound (compound 72), reference compound or water (control) were added to a buffer containing 40 mM Tris/HCl (pH 7.4), 8 mM MgCl2 0.21% BSA, 0.5 μg/ml calmoduline and 0.5 mM CaCl2), 1.125 μM cGMP and 0.027 μCi [3H]cGMP. Thereafter, the reaction was initiated by addition of the enzyme (about 0.2 U) and the mixture was incubated for 20 min at 22° C. For basal control measurements, the enzyme was omitted from the reaction mixture. Following incubation SPA beads were added. After 30 min at 22° C. under shaking, the amount of [3H]5′GMP was quantified with a scintillation counter (MicroBeta, Perkin Elmer). The results were expressed as a percent inhibition of the control enzyme activity. The standard inhibitory reference compound was Nitrendipine, which was tested in each experiment at several concentrations to obtain an inhibition curve from which its IC50 value was calculated. • Human phosphodiesterase-5 quantified by measuring the formation of 5′GMP from cGMP using an enzyme isolated from human platelets at Eurofins-Cerep.

[2] = target: T2, Human phosphodiesterase-4D2 (Homo sapiens, UniProt Q08499); experiment: PDE4D2 (h) assay
T2 construct: host or cells: Sf9 cells
Experimental: The test compound (compound 72), reference compound or water (control) were added to a buffer containing 40 mM Tris/HCl (pH 7.4), 8 mM MgCl2 and 1.7 mM EGTA/NaOH, 450 nM cAMP and 0.25 μCi [3H]cAMP. Thereafter, the reaction was initiated by addition of the enzyme (about 1.2 U) and the mixture was incubated for 20 min at 22° C. For basal control measurements, the enzyme was omitted from the reaction mixture. Following incubation SPA beads were added. After 30 min at 22° C. under shaking, the amount of [3H]5′AMP was quantified with a scintillation counter (MicroBeta, Perkin Elmer). The results were expressed as a percent inhibition of the control enzyme activity. The standard inhibitory reference compound was Ro 20-1724, which was tested in each experiment at several concentrations to obtain an inhibition curve from which its IC50 value was calculated. • Human phosphodiesterase-4D2 quantified by measuring the formation of 5′AMP from cAMP using a human recombinant enzyme expressed in Sf9 cells.
(§1) The test compound (compound 72), reference compound or water (control) were added to a buffer containing 40 mM Tris/HCl (pH 7.4) and 8 mM MgCl2, 450 nM cAMP and 0.0125 μCi [3H]cAMP. […] After 30 min at 22° C. under shaking, the amount of [3H]5′AMP was quantified with a scintillation counter (Topcount, Packard). The results were expressed as a percent inhibition of the control enzyme activity. […]

[3] = target: T3, Human phosphodiesterase-8A1 (Homo sapiens, UniProt O60658); experiment: PDE8A1 (h) assay
T3 construct: host or cells: Sf9 cells
Experimental: The test compound (compound 72), reference compound or water (control) were added to a buffer containing 40 mM Tris/HCl (pH 7.4) and 8 mM MgCl2, 63 nM cAMP and 0.035 μCi [3H]cAMP. Thereafter, the reaction was initiated by addition of the enzyme (about 0.6 U) and the mixture was incubated for 20 min at 22° C. For basal control measurements, the enzyme was omitted from the reaction mixture. Following incubation SPA beads were added. After 30 min at 22° C. under shaking, the amount of [3H]5′AMP was quantified with a scintillation counter (MicroBeta, Perkin Elmer). The results were expressed as a percent inhibition of the control enzyme activity. The standard inhibitory reference compound was BRL50481, which was tested in each experiment at several concentrations to obtain an inhibition curve from which its IC50 value was calculated. • Human phosphodiesterase-8A1 quantified by measuring the formation of 5′AMP from cAMP using a human recombinant enzyme expressed in Sf9 cells
as §1, with “180” for “450”, “0.1” for “0.0125”, “(MicroBeta, Perkin Elmer).” for “(Topcount, Packard).”

T2 sequence (Q08499 303-809 limits assumed): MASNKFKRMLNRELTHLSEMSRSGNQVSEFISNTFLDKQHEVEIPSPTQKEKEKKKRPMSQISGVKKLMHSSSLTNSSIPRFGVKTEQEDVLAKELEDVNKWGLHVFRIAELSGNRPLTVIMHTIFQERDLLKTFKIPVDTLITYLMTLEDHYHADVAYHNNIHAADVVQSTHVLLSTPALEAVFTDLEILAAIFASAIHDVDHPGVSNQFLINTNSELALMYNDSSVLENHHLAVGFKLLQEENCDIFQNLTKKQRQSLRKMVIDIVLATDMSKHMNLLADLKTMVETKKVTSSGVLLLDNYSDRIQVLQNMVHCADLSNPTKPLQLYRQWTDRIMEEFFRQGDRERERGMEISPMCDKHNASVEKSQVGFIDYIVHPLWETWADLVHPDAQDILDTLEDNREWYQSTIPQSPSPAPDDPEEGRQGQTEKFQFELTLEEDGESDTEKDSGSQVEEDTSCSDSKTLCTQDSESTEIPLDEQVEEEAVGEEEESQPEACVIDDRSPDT
T3 sequence (O60658 whole entry): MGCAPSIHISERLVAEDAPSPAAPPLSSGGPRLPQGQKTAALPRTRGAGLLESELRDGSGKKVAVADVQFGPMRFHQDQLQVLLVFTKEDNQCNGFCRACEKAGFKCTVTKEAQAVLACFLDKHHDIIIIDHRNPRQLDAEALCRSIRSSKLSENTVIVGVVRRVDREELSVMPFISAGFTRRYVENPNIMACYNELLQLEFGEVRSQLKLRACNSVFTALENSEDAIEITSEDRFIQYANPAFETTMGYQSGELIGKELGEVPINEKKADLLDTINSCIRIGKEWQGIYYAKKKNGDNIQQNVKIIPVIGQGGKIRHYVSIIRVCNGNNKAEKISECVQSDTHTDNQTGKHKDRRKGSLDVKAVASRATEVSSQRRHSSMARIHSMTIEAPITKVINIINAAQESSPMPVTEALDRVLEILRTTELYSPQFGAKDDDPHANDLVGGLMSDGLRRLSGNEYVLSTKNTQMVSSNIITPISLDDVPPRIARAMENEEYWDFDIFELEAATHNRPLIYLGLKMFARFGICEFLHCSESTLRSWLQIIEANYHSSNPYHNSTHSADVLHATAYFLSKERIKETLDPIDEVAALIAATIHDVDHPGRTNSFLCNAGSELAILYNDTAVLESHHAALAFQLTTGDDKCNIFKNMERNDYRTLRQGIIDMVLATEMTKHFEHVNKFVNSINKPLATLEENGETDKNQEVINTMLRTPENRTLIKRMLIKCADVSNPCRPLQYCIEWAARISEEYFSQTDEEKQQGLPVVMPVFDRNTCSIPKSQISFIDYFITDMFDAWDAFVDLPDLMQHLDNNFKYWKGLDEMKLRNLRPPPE

Q: How did the pIC50 [1] turn out when `COCCN(CCOC)c1nc(N2CCN(C)C(=O)C2)c2nc(N(CCOC)CCOC)nc(N3CCC(OC)CC3)c2n1` [Compound 72, 4-(2,6-bis(bis(2-methoxyethyl)amino)-8-(4-methoxypiperidin-1-yl)pyrimido[5,4-d]pyrimidin-4-yl)-1-methylpiperazin-2-one] was run?
A: < 5.00

Q: What about the pIC50 [2] of the same compound?
A: 5.00 to 6.00

Q: And the pIC50 [3]?
A: < 5.00
